The source of these data is patent US9249095B2, “2-methylthiopyrrolidines and their use for modulating bacterial quorum sensing” (priority 2011, dated 2016).

Assay [1] relates to P. aeruginosa las AHL-mediated pathway (PlasI-lacZ reporter). Briefly: Anti-quorum sensing β-galactosidase assay, las biomonitor (PlasI-lacZ with lasR expressed in E. coli DH5α). Format: cell-based, Pseudomonas aeruginosa. The conditions noted are these: for effect on las activity / lasI promoter expression (in words): tested at 50-200 μg/mL against 2 μM 3-oxo-C12-AHL. As to the method:
Anti-Quorum Sensing Assay (β-Galactosidase Assay). An overnight (O/N) culture of Escherichia coli DH5α harboring the plasmids pSC11, which contains a PlasI-lacZ translational fusion (24), and pJN105L, which contains a PBAD-lasR expression plasmid (25) grown in LB media (10 g tryptone, 5 g yeast extract, 5 g sodium chloride per liter) supplemented with ampillicin (100 μg/ml) and gentamycin (15 μg/ml), was diluted to an OD600 of 0.150. At this time, arabinose (0.2% w/v), N-3-(oxododecanoyl)homoserine lactone (3-oxo-C12-AHL; 2 μM), and either the compound under analysis or solvent (DMSO), was added to the culture (1.5 mL). A negative control containing only solvent and arabinose (0.2% w/v) was also assayed. The cultures were incubated with shaking for three hours at 37° C.
(§1) The conditions for the rhl biomonitor Escherichia coli DH5α harboring pECP61.5 plasmid, which contains Ptac-rhlR and PrhlA-lacZ (4), were essentially same except that the LB medium was only supplemented with ampillicin (100 μg/ml), the O/N culture was diluted to an OD600 of 0.150, induced with 1 mM IPTG, 2 μM C4—HSL and the compounds or the controls added when the OD600 reached 1.0. After incubation at 37° C. for 4 hours with shaking, β-galactosidase activity was assayed as described previously (28). Miller units were calculated as described (29). Assays were repeated at least twice. For each biological replicate, experimental triplicates were performed and the average percent activity calculated by dividing the average Miller units from the samples containing compound or extract by the average Miller units from the sample containing solvent and multiplying by 100. Significance of inhibition was determined using a paired two-tailed Student t-test.
(§2) Strains: E. coli DH5α harboring a PBAD-lasR expression plasmid and a PlasI-lacZ translational fusion plasmid was used as a biomonitor for the P. aeruginosa Las QS system, and e. coli XL-1Blue harboring a plasmid containing rhlA::lacZ translational fusion and Ptac-rhlR was used as a biomonitor for the P. aeruginosa Rhl QS system. V. harveyi strain B392 (MAV) was used.
Screening against las signaling. To determine the effect of the lactams (7, 16, and 17) and the cyclic azahemiacetal derivatives (10, 20 and 21) on the P. aeruginosa las AHL-mediated pathway, a las-dependent β-galactosidase reporter (PlasI-lacZ) was expressed with lasR in E. coli (24-25). […] The effect of synthetic compounds on the las activity was also compared with the addition of DMSO as a solvent. The propylthio lactam 7a and its azahemiacetal counterpart 10a were initially screened at a concentration of 100 μg/mL for their activity against the las system. […] This was dependent upon the addition of 2 μM of 3-oxo-C12-AHL. […] Cell growth was not inhibited by the addition of lactam and azahemiacetal compounds at the tested concentrations (data not shown).

Assay [2] deals with P. aeruginosa rhl AHL-mediated pathway (PrhlA-lacZ reporter). Put plainly: Anti-quorum sensing β-galactosidase assay, rhl biomonitor (PrhlA-lacZ with rhlR expressed in E. coli). The format is cell-based, Pseudomonas aeruginosa. The conditions noted are these: for activity at 50 µg/mL / activity at 150 µg/mL / activity at 200 µg/mL / activity at 100 µg/mL: Escherichia coli, 4 h, read-out: Percent Activity ± Standard Deviation (PrhlA-lacZ expression relative to DMSO treated control); for effect on rhl activity (in words): tested at 50-200 μg/mL against 2 μM C4-AHL. As to the method:
as §1, §2
Screening Against the rhl Pathway. To determine the effect of the lactams (7, 16, and 17) and the cyclic azahemiacetal derivatives (10, 20 and 21) on the P. aeruginosa rhl AHL-mediated pathways, a rhl-dependent β-galactosidase reporter (PrhlA-lacZ) was expressed with rhlR in E. coli (24-25). […] The lactam analogues 7a-d stimulated rhl QS activities at higher concentrations with moderate potency. […] The strong inhibition observed with propylthio 10a and hexylthio 10b azahemiacetal analogues having side chain lengths similar to C4-AHL is in agreement with the structure activity relationship reported for various synthetic AHL mimetics targeting RhlR (26).

The subject of the next assay is Vibrio harveyi. Briefly: Luminescence assay in Vibrio harveyi. Format: cell-based. As to the method:
Luminescence Assay: Vibrio harveyi was grown in AB medium. A 2.5 mL aliquot of overnight culture of V. harveyi was added to 2.5 μL and 10 μL of each compound as well as the solvent. The compound was dissolved in water or DMSO to serve as a control. Growth and luminescence were measured simultaneously in a modified Spec20 for three hours. Growth was measured as OD600 and luminescence was recorded in light units (1 LU=6.51×10^8 quanta/sec/mL).
as §2

The target of a further assay is LasR (Pseudomonas aeruginosa, UniProt P25084). As to conditions: Smith et al, reference 9; cited from earlier work.
Where [3] appears, read: Pseudomonas aeruginosa, read-out: inhibition of las reporter activity.
The mark [4] stands for this setting: Pseudomonas aeruginosa, read-out: inhibition of las activity.

Sequence of LasR (P25084 whole entry): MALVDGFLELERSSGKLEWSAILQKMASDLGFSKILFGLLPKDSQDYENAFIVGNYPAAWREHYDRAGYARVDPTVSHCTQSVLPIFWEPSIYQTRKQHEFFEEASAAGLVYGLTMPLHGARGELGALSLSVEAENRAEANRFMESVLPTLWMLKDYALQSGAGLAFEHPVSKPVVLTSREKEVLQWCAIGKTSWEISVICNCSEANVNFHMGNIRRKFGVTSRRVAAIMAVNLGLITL

In the case of `CCCCCCCCCSCC1NC(O)C(O)C1O` (stereo not shown) [Compound 21, 3,4-Dihydroxy-5-(nonylthiomethyl)pyrrolidin-2-ol], in assay [1], the “effect on las activity / lasI promoter expression (in words)” value is reported as “inhibit las activity at all concentrations tested but only with moderate potency”. Moreover, in assay [2], the activity at 50 µg/mL is 98 ± 5%, the activity at 150 µg/mL is 116 ± 9%, the activity at 200 µg/mL stood at 121 ± 14% and the “effect on rhl activity (in words)” value is reported as “stimulated rhl activities with moderate potency”.

On to `CCCCCCSCC1CCC(=O)N1` (stereo not shown) [Compound 7b, 5-(Hexylthiomethyl)pyrrolidin-2-one], for which, in assay [1], the “effect on las activity / lasI promoter expression (in words)” value is on record as “dosed dependent inhibition”. Further, in assay [2], the activity at 50 µg/mL came to 126 ± 8%, the activity at 100 µg/mL came to 126 ± 29%, the activity at 150 µg/mL was 130 ± 31% and the “effect on rhl activity (in words)” value is “most active”.

With `CCCCCCCCCCCCSCC1CCC(O)N1` (stereo not shown) [Compound 10d, 5-(Dodecylthiomethyl)pyrrolidin-2-ol], in assay [1], the “effect on las activity / lasI promoter expression (in words)” value was “moderate activity”. In assay [2], the activity at 50 µg/mL was found to be 98 ± 13%, the activity at 100 µg/mL stood at 93 ± 27%, the activity at 150 µg/mL amounted to 91 ± 8% and the activity at 200 µg/mL was 96 ± 5%. Moreover, in assay [2], the “effect on rhl activity (in words)” value is “inactive”.

Turning to `CCCCCCCCCC(=O)CC(=O)N[C@H]1CCOC1=O` [3-oxo-C12-AHL, N-3-(oxododecanoyl)homoserine lactone, reference compound], the “effect on las activity / lasI promoter expression (in words)” value in assay [1] is “activated the PlasI-lacZ”.

Regarding `CCCCCCCCCSCC1NC(=O)C(O)C1O` (stereo not shown) [Compound 17, 3,4-Dihydroxy-5-(nonylthiomethyl)pyrrolidin-2-one], the “effect on las activity / lasI promoter expression (in words)” value in assay [1] was “inhibit las activity at all concentrations tested but only with moderate potency”. In assay [2], the activity at 50 µg/mL was determined as 106 ± 3%, the activity at 150 µg/mL is 115 ± 11%, the activity at 200 µg/mL came to 135 ± 5% and the “effect on rhl activity (in words)” value is “stimulated rhl activities with moderate potency”.

A word on the inhibition: it is the change of the read-out against control, counted positive when it falls. For `CCCSCC1CCC(O)N1` (stereo not shown) [Compound 10a, 5-(Propylthiomethyl)pyrrolidin-2-ol], the “stimulation of las reporter activity” value in assay [1] (50 μg/mL, 2 μM 3-oxo-C12-AHL) is ~2.3 fold. The “enhancement of las reporter activity” value in assay [1] (100 μg/mL, 2 μM 3-oxo-C12-AHL) is reported as 15%. Besides, in assay [1] (setting [3]), the inhibition at 150 µg/mL turned out to be 69% and the inhibition at 200 µg/mL worked out at 89%. In assay [2], the activity at 50 µg/mL came to 121 ± 6%, the activity at 100 µg/mL is 138 ± 3%, the activity at 200 µg/mL turned out to be 9% and the “effect on rhl activity (in words)” value is reported as “inhibited rhl activity”. Besides, in the assay with Vibrio harveyi, the “anti-QS effect against V. harveyi (in words)” value was “strong anti-QS effect”.

With `CCCSCC1CCC(=O)N1` (stereo not shown) [Compound 7a, 5-(Propylthiomethyl)pyrrolidin-2-one], in assay [1] (setting [4]), the inhibition at 100 µg/mL is ~28%. The “effect on las activity / lasI promoter expression (in words)” value in assay [1] was “inhibited las activity at all concentrations tested”. The “effect on las activity / lasI promoter expression (in words)” value in assay [1] (listed as OMPP) was “dosed dependent inhibition”. Also, in assay [2], the activity at 50 µg/mL was found to be 104 ± 24%, the activity at 100 µg/mL is 118%, the activity at 150 µg/mL worked out at 104 ± 13% and the activity at 200 µg/mL came out at 108 ± 17%.

Consider `CCCCCCSCC1NC(=O)C(O)C1O` (stereo not shown) [Compound 16, 3,4-Dihydroxy-5-(hexylthiomethyl)pyrrolidin-2-one], for which the “effect on las activity / lasI promoter expression (in words)” value in assay [1] was “inhibit las activity at all concentrations tested but only with moderate potency”. In addition, in assay [2], the activity at 50 µg/mL came out at 132 ± 36%, the activity at 100 µg/mL stood at 129 ± 10%, the activity at 150 µg/mL was 148 ± 9% and the activity at 200 µg/mL came to 161 ± 7%. Further, in assay [2], the “effect on rhl activity (in words)” value was “stimulated rhl activities with moderate potency”.

On to `CCCCCCCCCCCCSCC1CCC(=O)N1` (stereo not shown) [Compound 7d, 5-(Dodecylthiomethyl)pyrrolidin-2-one], for which the inhibition at 50 µg/mL in assay [1] (setting [4]) came to 48%. Further, the “effect on las activity / lasI promoter expression (in words)” value in assay [1] is “greatest inhibition at all concentrations tested”. Moreover, in assay [2], the activity at 50 µg/mL turned out to be 103 ± 7%, the activity at 100 µg/mL worked out at 106 ± 6%, the activity at 150 µg/mL stood at 109 ± 8% and the activity at 200 µg/mL was determined as 106 ± 5%.

Turning to `CCCCCCSCC1CCC(O)N1` (stereo not shown) [Compound 10b, 5-(Hexylthiomethyl)pyrrolidin-2-ol], the “inhibition of las activity” value in assay [1] (all concentrations tested higher than 50 μg/mL) came to 100%. Also, the “effect on las activity / lasI promoter expression (in words)” value in assay [1] is given as “stimulated QS at 50 μg/mL but with much lesser potency”. Also, in assay [2], the activity at 50 µg/mL amounted to 26% and the “effect on rhl activity (in words)” value was “inhibited rhl activity”. Further, the “inhibition of rhl signaling (in words)” value in assay [2] (concentrations of 100 μg/mL and higher) is recorded as “completely inhibited”.

`CCCCCCCCCSCC1CCC(=O)N1` (stereo not shown) [Compound 7c, 5-(Nonylthiomethyl)pyrrolidin-2-one]: the inhibition at 50 µg/mL in assay [1] (setting [4]) came to 28%. In addition, in assay [1], the “effect on las activity / lasI promoter expression (in words)” value is recorded as “greatest inhibition at all concentrations tested”. Moreover, in assay [2], the activity at 50 µg/mL was 95 ± 3%, the activity at 100 µg/mL is 115 ± 30%, the activity at 150 µg/mL was 108 ± 12% and the activity at 200 µg/mL was found to be 137 ± 46%.

Regarding `CCCCCCSCC1NC(O)C(O)C1O` (stereo not shown) [Compound 20, 3,4-Dihydroxy-5-(hexylthiomethyl)pyrrolidin-2-ol], in assay [1], the “effect on las activity / lasI promoter expression (in words)” value is given as “inhibit las activity at all concentrations tested but only with moderate potency”. In addition, in assay [2], the activity at 50 µg/mL turned out to be 94 ± 8%, the activity at 100 µg/mL amounted to 105 ± 3%, the activity at 150 µg/mL was found to be 109 ± 12% and the activity at 200 µg/mL came to 116 ± 18%. In assay [2], the “effect on rhl activity (in words)” value is given as “stimulated rhl activities with moderate potency”.

For the molecule `CCCCCCCCCSCC1CCC(O)N1` (stereo not shown) [Compound 10c, 5-(Nonanylthiomethyl)pyrrolidin-2-ol], the “effect on las activity / lasI promoter expression (in words)” value in assay [1] is on record as “moderate activity”. For the same molecule, in assay [2], the activity at 50 µg/mL was determined as 93 ± 12%, the activity at 100 µg/mL was found to be 80 ± 13%, the activity at 150 µg/mL is 100 ± 11% and the activity at 200 µg/mL amounted to 99 ± 3%. For the same molecule, the “effect on rhl activity (in words)” value in assay [2] was “inactive”.

`N[C@@H](CCSCC1C(O)C(O)C(=O)N1Cc1ccccc1)C(=O)O` (stereo partly shown) [BDOH]: in the assay with Vibrio harveyi, the “anti-QS effect against V. harveyi (in words)” value was “strong anti-QS effect”.

`CCCC(=O)N[C@H]1CCOC1=O` [Compound C4-AHL, N-butanoyl-L-homoserine lactone, reference compound]: the “effect on rhl activity (in words)” value in assay [2] is recorded as “activated the rhl β-galactosidase reporter”.

In the case of `CCCCCCCCCC(=O)CC(=O)NC1CCCCC1=O` (stereo not shown) [3-oxo-C12-(2-aminocyclohexanone)], the “antagonism of LasR system (in words)” value at LasR is reported as “strong antagonist”.
